The values that follow come from ChEMBL document CHEMBL1134218, “Sialidase inhibitors related to zanamivir. Further SAR studies of 4-amino-4H-pyran-2-carboxylic acid-6-propylamides” (Bioorg Med Chem Lett, 2001).

Test [1] relates to Influenza A virus. Put plainly: Concentration required for reduction of plaque against influenza A. In kind it is functional, organism-based, unidentified influenza virus.
The test system of test [2] is Influenza B virus. In words: Concentration required for reduction of plaque against influenza B. It is filed as functional, organism-based, unidentified influenza virus.
Setting [3] is: Influenza A virus, read-out: IC50.
The mark [4] stands for this setting: Influenza B virus, read-out: IC50.

Converted amounts (≈) assume the structure as drawn.

For orientation: IC50 means the point on the concentration scale where inhibition reaches its midpoint. Turning to `CCCN(CCC)C(=O)[C@@H]1OC(C(=O)O)=C[C@H](N)[C@H]1NC(=O)C(F)(F)F`, the IC50 stood at 0.01 ng/mL (≈ 0.0262 nM) in test [1] (setting [3]) and 300 ng/mL (≈ 787 nM) in test [2] (setting [4]).
Turning to `CCCN(CCC)C(=O)[C@@H]1OC(C(=O)O)=C[C@H](N)[C@H]1NC(C)=O`, the IC50 was found to be 2 ng/mL (≈ 6.11 nM) in test [1] (setting [3]) and 700 ng/mL (≈ 2140 nM) in test [2] (setting [4]).
The corresponding values for `CCCN(CCc1ccccc1)C(=O)[C@@H]1OC(C(=O)O)=C[C@H](N)[C@H]1NC(=O)C(F)(F)F` are 4 ng/mL (≈ 9.02 nM) and 56 ng/mL (≈ 126 nM).
The corresponding values for `CCCN(CCc1ccccc1)C(=O)[C@@H]1OC(C(=O)O)=C[C@H](O)[C@H]1NC(C)=O` are 5 ng/mL (≈ 12.8 nM) and over 100000 ng/mL.
For `CCCN(CCC)C(=O)[C@@H]1OC(C(=O)O)=C[C@H](N)[C@H]1NC(=O)CC`, the IC50 came out at 0.2 ng/mL (≈ 0.586 nM) in test [1] (setting [3]) and 3000 ng/mL (≈ 8790 nM) in test [2] (setting [4]).
The corresponding values for `CC(=O)N[C@H]1[C@H]([C@H](O)[C@H](O)CO)OC(C(=O)O)=C[C@@H]1NC(=N)N` [ZANAMIVIR] are 5 ng/mL (≈ 15 nM) and 2 ng/mL (≈ 6.02 nM).
Regarding `CCCN(CCc1ccccc1)C(=O)[C@@H]1OC(C(=O)O)=C[C@H](N)[C@H]1NC(C)=O`, the IC50 in test [1] worked out at 30 ng/mL (≈ 77 nM); in test [1] (setting [3]) it was 30 ng/mL (≈ 77 nM); in test [2], 300 ng/mL (≈ 770 nM); in test [2] (setting [4]), 280 ng/mL (≈ 719 nM).
